#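 Values below derive from 48-hour exposures of cells grown in 96-well plates, with endpoints linearly interpolated between the two concentrations bracketing the appropriate inhibition level. The concentration for 50% growth inhibition is given as GI50. TGI marks complete inhibition of growth.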
# Key:
# Test in all cases: growth of human tumour cells (NCI), 48 h
# CCRF-CEM leukemia = tested on: CCRF-CEM leukemia
# DU-145 prostate = tested on: DU-145 prostate
# SK-MEL-2 melanoma = tested on: SK-MEL-2 melanoma
# U251 CNS = tested on: U251 CNS
# SF-539 CNS = tested on: SF-539 CNS
# SK-MEL-5 melanoma = tested on: SK-MEL-5 melanoma
# RPMI-8226 leukemia = tested on: RPMI-8226 leukemia
# NCI-H522 lung = tested on: NCI-H522 lung
# OVCAR-5 ovarian = tested on: OVCAR-5 ovarian
# RXF 393 renal = tested on: RXF 393 renal
# SW-620 colon = tested on: SW-620 colon
# NCI-H460 lung = tested on: NCI-H460 lung
# NCI-H226 lung = tested on: NCI-H226 lung
# NCI-H23 lung = tested on: NCI-H23 lung
# SNB-19 CNS = tested on: SNB-19 CNS
# T-47D breast = tested on: T-47D breast
# MDA-MB-435 = tested on: MDA-MB-435
# SK-OV-3 ovarian = tested on: SK-OV-3 ovarian
# SNB-75 CNS = tested on: SNB-75 CNS
# NCI/ADR-RES ovarian = tested on: NCI/ADR-RES ovarian
# HL-60(TB) leukemia = tested on: HL-60(TB) leukemia
# HOP-62 NSCLC = tested on: HOP-62 NSCLC
# HCT-116 colon = tested on: HCT-116 colon
# UO-31 renal = tested on: UO-31 renal
# MALME-3M melanoma = tested on: MALME-3M melanoma
# MDA-MB-231 breast = tested on: MDA-MB-231 breast
# EKVX NSCLC = tested on: EKVX NSCLC
# HT29 colon = tested on: HT29 colon
# HCT-15 colon = tested on: HCT-15 colon
compound,measurement,setting,value
CCCCCCCCCCCCCC(=O)C(C)N (configuration not stated),GI50,CCRF-CEM leukemia,8.35 µM
same,TGI,CCRF-CEM leukemia,27.2 µM
same,GI50,DU-145 prostate,2.59 µM
same,TGI,DU-145 prostate,7.35 µM
same,GI50,SK-MEL-2 melanoma,16 µM
same,TGI,SK-MEL-2 melanoma,31.2 µM
same,GI50,U251 CNS,8.29 µM
same,TGI,U251 CNS,21.7 µM
same,GI50,SF-539 CNS,6.63 µM
same,TGI,SF-539 CNS,21.6 µM
same,GI50,SK-MEL-5 melanoma,17.9 µM
same,TGI,SK-MEL-5 melanoma,32.2 µM
same,GI50,RPMI-8226 leukemia,6.26 µM
same,TGI,RPMI-8226 leukemia,23.7 µM
same,GI50,NCI-H522 lung,12.7 µM
same,TGI,NCI-H522 lung,27.5 µM
same,GI50,OVCAR-5 ovarian,10.6 µM
same,TGI,OVCAR-5 ovarian,23.8 µM
same,GI50,RXF 393 renal,4.46 µM
same,TGI,RXF 393 renal,17 µM
same,GI50,SW-620 colon,11.6 µM
same,TGI,SW-620 colon,27.2 µM
same,GI50,NCI-H460 lung,4.16 µM
same,TGI,NCI-H460 lung,15.3 µM
same,GI50,NCI-H226 lung,21.8 µM
same,TGI,NCI-H226 lung,44.3 µM
same,GI50,NCI-H23 lung,6.94 µM
same,TGI,NCI-H23 lung,21.9 µM
same,GI50,SNB-19 CNS,13.5 µM
same,TGI,SNB-19 CNS,30.7 µM
same,GI50,T-47D breast,2.17 µM
same,TGI,T-47D breast,5.5 µM
same,GI50,MDA-MB-435,13.8 µM
same,TGI,MDA-MB-435,28 µM
same,GI50,SK-OV-3 ovarian,9.36 µM
same,TGI,SK-OV-3 ovarian,22 µM
same,GI50,SNB-75 CNS,6.56 µM
same,TGI,SNB-75 CNS,20.7 µM
same,GI50,NCI/ADR-RES ovarian,13.7 µM
same,TGI,NCI/ADR-RES ovarian,29.4 µM
same,GI50,HL-60(TB) leukemia,2.65 µM
same,TGI,HL-60(TB) leukemia,10.4 µM
same,GI50,HOP-62 NSCLC,4.76 µM
same,TGI,HOP-62 NSCLC,16.9 µM
same,GI50,HCT-116 colon,5.27 µM
same,TGI,HCT-116 colon,18.7 µM
same,GI50,UO-31 renal,10.5 µM
same,TGI,UO-31 renal,24.2 µM
same,GI50,MALME-3M melanoma,14 µM
same,TGI,MALME-3M melanoma,29.3 µM
same,GI50,MDA-MB-231 breast,2.37 µM
same,TGI,MDA-MB-231 breast,6.06 µM
same,GI50,EKVX NSCLC,2.13 µM
same,TGI,EKVX NSCLC,4.75 µM
same,GI50,HT29 colon,3.89 µM
same,TGI,HT29 colon,13.7 µM
same,GI50,HCT-15 colon,0.917 µM
